Test [1] concerns M. tuberculosis mrx2 KO mutant (Δmrx2). In kind it is cell-based. The following applies: times higher.
Test [2] concerns the target Mrx2 mutants (Mycobacterium tuberculosis, UniProt O53193, G95S). In kind it is biochemical, M. tuberculosis.

The source of these data is article PMC9841431 (Nucleic Acids Research, 2022).

In the case of `COC(=O)c1ccc2c(ccc3oc([N+](=O)[O-])cc32)c1` [nNF-C4, Methyl 2-nitronaphtho[2,1-b]furan-7-carboxylate], the “MIC of Δmrx2 relative to M. tuberculosis H37Rv” value in test [1] was 16 times.
`O=[N+]([O-])c1cc2cc3ccc4oc([N+](=O)[O-])cc4c3cc2o1` [nNF-C2, 2,8-Dinitronaphtho[2,1-b:7,6-b']difuran]: the “MIC of Δmrx2 relative to M. tuberculosis H37Rv” value in test [1] amounted to 8 times. The “Activity of Mrx2G95S against the compound” value in test [2] is “maintained its ability to metabolize”.
